# Experimental data: patent publication US20210323950A1, “HERBICIDALLY ACTIVE BICYCLIC BENZOYLPYRAZOLES” (Bayer Aktiengesellschaft, priority 2018, published 2021)
# How the values were obtained:
# Format in all cases: in vivo
# [1] = tested on: Echinochloa crus-galli (ECHCG); assay: Pre-emergence herbicidal action against ECHCG; settings: 80 g/ha, scored visually after about 3 weeks vs untreated controls
# Description: (§1) ECHCG: Echinochloa crus-galli 1. Pre-Emergence Herbicidal Action and Crop Plant Compatibility Seeds of monocotyledonous and dicotyledonous weed plants and crop plants are placed in plastic or organic planting pots and covered with soil. The compounds of the invention, formulated in the form of wettable powders (WP) or as emulsion concentrates (EC), are then applied onto the surface of the covering soil as aqueous suspension or emulsion with addition of 0.5% additive at a water application rate of […] (converted). After the treatment, the pots are placed in a greenhouse and kept under good growth conditions for the trial plants. After about 3 weeks, the effect of the preparations is scored visually in comparison with untreated controls as percentages. The tables below show the herbicidal activity of numerous compounds according to the invention against important harmful plants. For example, 100% activity=the plants have died, 0% activity=like control plants.
# [2] = tested on: Setaria viridis (SETVI); assay: Pre-emergence herbicidal action against SETVI; settings: 80 g/ha, scored visually after about 3 weeks vs untreated controls
# Description: as §1, with “SETVI: Setaria viridis” for “ECHCG: Echinochloa crus-galli”
# [3] = tested on: Amaranthus retroflexus (AMARE); assay: Pre-emergence herbicidal action against AMARE; settings: 80 g/ha, scored visually after about 3 weeks vs untreated controls
# Description: as §1, with “AMARE: Amaranthus retroflexus” for “ECHCG: Echinochloa crus-galli”
# [4] = tested on: Stellaria media (STEME); assay: Pre-emergence herbicidal action against STEME; settings: 80 g/ha, scored visually after about 3 weeks vs untreated controls
# Description: as §1, with “STEME: Stellaria media” for “ECHCG: Echinochloa crus-galli”
# [5] = tested on: Viola tricolor (VIOTR); assay: Pre-emergence herbicidal action against VIOTR; settings: 80 g/ha, scored visually after about 3 weeks vs untreated controls
# Description: as §1, with “VIOTR: Viola tricolor” for “ECHCG: Echinochloa crus-galli”
# [6] = tested on: Echinochloa crus-galli (ECHCG); assay: Post-emergence herbicidal action against ECHCG; settings: 20 g/ha, post-emergence at one-leaf stage, rated visually after about 3 weeks vs untreated controls
# Description: (§2) ECHCG: Echinochloa crus-galli 2. Post-Emergence Herbicidal Action and Crop Plant Compatibility Seeds of monocotyledonous and dicotyledonous weeds and crop plants are placed in sandy loam in plastic or organic planting pots, covered with soil and cultivated in a greenhouse under controlled growth conditions. 2 to 3 weeks after sowing, the test plants are treated at the one-leaf stage. The compounds of the invention, formulated in the form of wettable powders (WP) or as emulsion concentrates (EC), are then sprayed onto the green parts of the plants as aqueous suspension or emulsion with addition of 0.5% additive at a water application rate of […] (converted). After the test plants had been kept in the greenhouse under optimum growth conditions for about 3 weeks, the activity of the preparations is rated visually in comparison to untreated controls. The tables below show the herbicidal activity of numerous compounds according to the invention against important harmful plants. For example, 100% activity=the plants have died, 0% activity=like control plants.
# [7] = tested on: Setaria viridis (SETVI); assay: Post-emergence herbicidal action against SETVI; settings: 20 g/ha, post-emergence at one-leaf stage, rated visually after about 3 weeks vs untreated controls
# Description: as §2, with “SETVI: Setaria viridis” for “ECHCG: Echinochloa crus-galli”
# [8] = tested on: Amaranthus retroflexus (AMARE); assay: Post-emergence herbicidal action against AMARE; settings: 20 g/ha, post-emergence at one-leaf stage, rated visually after about 3 weeks vs untreated controls
# Description: as §2, with “AMARE: Amaranthus retroflexus” for “ECHCG: Echinochloa crus-galli”
# [9] = tested on: Abutilon theophrasti (ABUTH); assay: Pre-emergence herbicidal action against ABUTH; settings: 80 g/ha, scored visually after about 3 weeks vs untreated controls
# Description: as §1, with “ABUTH: Abutilon theophrasti” for “ECHCG: Echinochloa crus-galli”
# [10] = tested on: Stellaria media (STEME); assay: Post-emergence herbicidal action against STEME; settings: 20 g/ha, post-emergence at one-leaf stage, rated visually after about 3 weeks vs untreated controls
# Description: as §2, with “STEME: Stellaria media” for “ECHCG: Echinochloa crus-galli”
structure (smiles),measurement,setting,value
CCn1ncc(C(=O)c2ccc(C(F)(F)F)c3c2SCCS3)c1O [Example 1-65],Pre-emergence action against ECHCG,[1],80%
same,Pre-emergence action against SETVI,[2],90%
same,Pre-emergence action against AMARE,[3],100%
same,Pre-emergence action against STEME,[4],100%
same,Pre-emergence action against VIOTR,[5],100%
same,Post-emergence action against ECHCG,[6],80%
same,Post-emergence action against SETVI,[7],100%
same,Post-emergence action against AMARE,[8],80%
Cc1nn(C)c(O)c1C(=O)c1ccc(C(F)(F)F)c2c1OCS2 [Example 1-23],Pre-emergence action against SETVI,[2],100%
same,Pre-emergence action against ABUTH,[9],100%
same,Pre-emergence action against AMARE,[3],80%
same,Pre-emergence action against STEME,[4],100%
same,Post-emergence action against AMARE,[8],100%
same,Post-emergence action against STEME,[10],80%
CCn1ncc(C(=O)c2ccc(C(F)(F)C(F)(F)F)c3c2OCS3)c1O [Example 1-131],Pre-emergence action against SETVI,[2],100%
same,Pre-emergence action against ABUTH,[9],100%
same,Pre-emergence action against AMARE,[3],100%
same,Pre-emergence action against STEME,[4],90%
same,Pre-emergence action against VIOTR,[5],100%
same,Post-emergence action against ECHCG,[6],80%
same,Post-emergence action against SETVI,[7],80%
Cn1ncc(C(=O)c2ccc(C(F)(F)F)c3c2SCCS3)c1O [Example 1-60],Pre-emergence action against AMARE,[3],100%
same,Pre-emergence action against STEME,[4],90%
same,Pre-emergence action against VIOTR,[5],100%
same,Post-emergence action against AMARE,[8],90%
same,Post-emergence action against STEME,[10],80%
Cc1nn(C)c(O)c1C(=O)c1ccc(C(F)(F)F)c2c1SCS2(=O)=O [Example 1-93],Pre-emergence action against AMARE,[3],100%
same,Pre-emergence action against STEME,[4],90%
same,Post-emergence action against ECHCG,[6],80%
same,Post-emergence action against AMARE,[8],90%
Cn1ncc(C(=O)c2ccc(C(F)(F)F)c3c2SCS3)c1O [Example 1-58],Pre-emergence action against AMARE,[3],80%
same,Pre-emergence action against STEME,[4],90%
same,Pre-emergence action against VIOTR,[5],100%
same,Post-emergence action against SETVI,[7],80%
same,Post-emergence action against AMARE,[8],90%
same,Post-emergence action against STEME,[10],80%
Cn1ncc(C(=O)c2ccc(C(F)(F)C(F)(F)F)c3c2OCS3(=O)=O)c1O [Example 1-130],Pre-emergence action against AMARE,[3],100%
same,Pre-emergence action against STEME,[4],100%
same,Post-emergence action against AMARE,[8],100%
same,Post-emergence action against STEME,[10],90%
Cn1nc(C2CC2)c(C(=O)c2ccc(C(F)(F)F)c3c2OCS3)c1O [Example 1-112],Pre-emergence action against AMARE,[3],100%
same,Pre-emergence action against STEME,[4],90%
same,Pre-emergence action against VIOTR,[5],90%
same,Post-emergence action against ECHCG,[6],80%
same,Post-emergence action against AMARE,[8],100%
same,Post-emergence action against STEME,[10],80%
CCn1ncc(C(=O)c2ccc(C(F)(F)F)c3c2SCS3(=O)=O)c1O [Example 1-89],Pre-emergence action against ABUTH,[9],90%
same,Pre-emergence action against AMARE,[3],100%
same,Pre-emergence action against STEME,[4],100%
same,Post-emergence action against AMARE,[8],90%
same,Post-emergence action against STEME,[10],80%
Cc1nn(C)c(O)c1C(=O)c1ccc(C(F)(F)F)c2c1SCCS2 [Example 1-70],Pre-emergence action against AMARE,[3],100%
same,Pre-emergence action against STEME,[4],100%
same,Pre-emergence action against VIOTR,[5],90%
same,Post-emergence action against AMARE,[8],90%
same,Post-emergence action against STEME,[10],80%
